Like-named read-outs stand apart in the source and are kept apart here. Values belong to the molecule of their own block, whether it stands above or below them.
What was measured:
Details in all cases: for inhibition at 100 µM: 10^-4 M
human A3 receptors = target: T1, human A3 receptors (Homo sapiens, UniProt P0DMS8); experiment: radioligand binding, displacement of specific [125I]AB-MECA binding at human A3 receptors expressed in HEK-293 cells
T1 construct: expressed in transfected cells; host or cells: HEK-293 cells (membranes)
T1 sequence (P0DMS8 1-318): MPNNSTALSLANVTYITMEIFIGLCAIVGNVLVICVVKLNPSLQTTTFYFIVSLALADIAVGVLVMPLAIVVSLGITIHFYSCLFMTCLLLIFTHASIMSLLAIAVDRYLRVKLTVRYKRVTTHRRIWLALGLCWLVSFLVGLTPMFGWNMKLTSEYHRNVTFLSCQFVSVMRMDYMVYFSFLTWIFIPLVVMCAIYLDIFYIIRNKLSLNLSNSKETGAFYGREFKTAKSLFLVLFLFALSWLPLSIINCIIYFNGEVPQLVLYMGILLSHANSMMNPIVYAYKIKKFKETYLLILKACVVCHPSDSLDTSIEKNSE
Experimental: A3 receptors expressed in HEK293 cells, in membranes, expressed as
binding displaced at 100 μM.

A2a receptors = target: T2, A2a receptors (Rattus norvegicus, UniProt P30543); experiment: radioligand binding, displacement of specific [3H]CGS 21680 binding in rat striatal membranes
T2 construct: Displacement of specific [^3 H]; from tissue; host or cells: rat striatal membranes
T2 sequence (P30543 whole entry): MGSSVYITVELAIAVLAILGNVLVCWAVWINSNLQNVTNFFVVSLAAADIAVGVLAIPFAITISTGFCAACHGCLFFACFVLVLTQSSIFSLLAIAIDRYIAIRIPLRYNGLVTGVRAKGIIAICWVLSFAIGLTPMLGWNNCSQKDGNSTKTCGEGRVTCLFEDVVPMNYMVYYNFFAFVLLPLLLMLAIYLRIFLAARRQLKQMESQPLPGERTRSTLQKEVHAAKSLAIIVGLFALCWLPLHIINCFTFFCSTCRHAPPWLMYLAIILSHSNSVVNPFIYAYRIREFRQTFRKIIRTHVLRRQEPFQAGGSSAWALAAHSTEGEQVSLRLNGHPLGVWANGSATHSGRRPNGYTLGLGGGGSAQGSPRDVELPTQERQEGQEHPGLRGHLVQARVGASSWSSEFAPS
Experimental: ^b Displacement of specific [^3 H]
or as a percentage of specific binding displaced at 100 μM.

A1 receptors = target: T3, A1 receptors (Rattus norvegicus, UniProt P25099); experiment: biochemical; format: binding
T3 sequence (P25099 1-326): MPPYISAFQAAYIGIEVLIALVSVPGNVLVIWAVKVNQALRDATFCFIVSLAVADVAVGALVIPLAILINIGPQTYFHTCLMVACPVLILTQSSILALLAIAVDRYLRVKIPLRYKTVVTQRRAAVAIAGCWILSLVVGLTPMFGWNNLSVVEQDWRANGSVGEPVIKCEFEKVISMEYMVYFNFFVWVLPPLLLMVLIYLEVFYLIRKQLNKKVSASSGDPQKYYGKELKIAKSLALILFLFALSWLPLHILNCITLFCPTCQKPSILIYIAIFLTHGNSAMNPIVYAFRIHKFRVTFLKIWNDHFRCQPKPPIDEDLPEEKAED
Experimental: ^a Displacement of specific [^3 H] PIA binding in rat brain
percentage of specific binding displaced at 100 μM.

[1] = Table 15, [125I]AB-MECA, HEK membranes, read-out: Ki hA3
[2] = Table 9, [125I]AB-MECA, HEK membranes, read-out: Ki hA3
[3] = Table 9, [3H]CGS 21680, rat striatal membranes, read-out: Ki rA2A
[4] = Table 9, [3H]PIA, rat brain membranes, read-out: Ki rA1
[5] = Table 12, read-out: % inhibition rA2A
[6] = Table 12, [125I]AB-MECA, HEK membranes, read-out: Ki hA3
[7] = Table 4, read-out: displacement of specific binding rA2a
[8] = Table 3, [125I]AB-MECA, HEK-293 membranes, read-out: Ki hA3
[9] = Table 3, [3H]PIA, rat brain membranes, read-out: Ki rA1
[10] = Table 3, read-out: displacement of specific binding rA2a
[11] = Table 6, [125I]AB-MECA, HEK-293 membranes, read-out: K2 (hA3)
[12] = Table 7, read-out: % of specific binding displaced hA3
[13] = Table 7, [3H]CGS 21680, rat striatal membranes, read-out: Ki (rA2A)
[14] = Table 11, [125I]AB-MECA, HEK membranes, read-out: Ki hA3
[15] = Table 16, [125I]AB-MECA, HEK membranes, read-out: Ki hA3

Molecule: 9-Chloro-2-(2-furyl)-5-(4'-iodobenzoyl)amino[1,2,4]triazolo [1,5-c]quinazoline [Compound 152]
Ki (human A3 receptors; [1]): 0.0238 ± 0.0052 µM

Ki (human A3 receptors; [2]): 4.58 µM | Ki (A2a receptors; [3]): 5.27 µM | Ki (A1 receptors; [4]): 3.66 µM
Molecule: CCOC(=O)C1=C(C)NC(C)=C(C(=O)OC)C1c1ccc2c(c1)OCO2 (racemic) [Compound 73, 3-methyl-5-ethyl-2,6-dimethyl-4-[3,4-(methylenedioxy)phenyl]-1,4(R,S)-dihydropyridine-3,5-dicarboxylate]

Molecule: CCOC(=O)C1=C(C)NC(c2ccccc2)=C(C(=O)O)C1C#Cc1ccccc1 (racemic) [Compound 131, 3-Ethoxycarbonyl-2-methyl-4-phenylethynyl-6-phenyl-1,4(±)-dihydropyridine-5-carboxylic acid]
inhibition at 10 µM (human A3 receptors; Table 12, 10^-5 M, read-out: displacement of specific binding hA3): < 10% | inhibition at 100 µM (A2a receptors; [5]): 16 ± 6%

Molecule: CCOCN1C(C)=C(C(=O)OCC)C(C#Cc2ccccc2)C(C(=O)O)=C1c1ccccc1 (racemic) [Compound 139, 1-Ethoxymethyl-3-ethoxycarbonyl-2-methyl-4-phenylethynyl-6-phenyl-1,4-(±)-dihydropyridine-5-carboxylic acid]
rA1/hA3 (human A3 receptors): > 1 | Ki (human A3 receptors; [6]): > 100 µM | inhibition at 100 µM (A2a receptors; [5]): 36 ± 7%

Molecule: O=C1c2ccccc2O[C@H](c2ccccc2O)[C@H]1O (relative stereo) [Compound 14, reference compound]
inhibition at 100 µM (human A3 receptors; Table 4, read-out: % of specific binding displaced hA3): 27 ± 3% | rA1/hA3 (human A3 receptors; Table 4, ratio of Ki): < 1 | inhibition at 100 µM (A2a receptors; [7]): < 10%

Molecule: COc1ccc2c(c1)C(=O)[C@H](O)[C@@H](C#Cc1ccccc1)O2 (relative stereo) [Compound 16]
rA1/hA3 (human A3 receptors): 6.2 | Ki (human A3 receptors; Table 4, [125I]AB-MECA, HEK-293 membranes, read-out: Ki hA3): 8.17 µM | inhibition at 100 µM (A2a receptors; [7]): < 10% | Ki (A1 receptors; Table 4, [3H]PIA, rat brain membranes, read-out: Ki rA1): 50.3 ± 17 µM

Molecule: CCOC(=O)c1c(C)nc(-c2ccccc2)c(C(=O)OCc2ccccc2)c1C#Cc1ccccc1 [B]
rA1/hA3 (human A3 receptors): 2.6 | inhibition at 100 µM (A2a receptors; Table 11, read-out: % inhibition rA2A): 43 ± 2% | Ki (A1 receptors; Table 11, [3H]PIA, rat brain membranes, read-out: Ki rA1): 7.01 ± 1.98 µM

Ki (human A3 receptors; [8]): 0.317 µM | Ki (A1 receptors; [9]): 1.1 ± 0.2 µM
Molecule: CCCOc1cc(OCCC)c2c(=O)c(OCCC)c(-c3ccccc3)oc2c1 [Compound 4, 3,5,7-Tripropyloxyflavone]

Molecule: CCOc1ccc(-c2oc3cc(OCC)cc(O)c3c(=O)c2OCC)c(OCC)c1 [Compound 7, 2',4',3,7-Tetraethoxy-5-hydroxymorin]
Ki (human A3 receptors; [8]): 4.83 ± 1.4 µM | rA1/hA3 (human A3 receptors; Table 3, ratio of Ki): > 40 | inhibition at 100 µM (A2a receptors; [10]): < 10% | inhibition at 100 µM (A1 receptors; Table 3, read-out: displacement of specific binding rA1): < 10%

Ki (human A3 receptors; [8]): 7.27 ± 1.88 µM | Ki (A2a receptors; Table 3, [3H]CGS 21680, rat striatal membranes, read-out: Ki rA2a): 26.8 µM
Molecule: CCOc1ccc(-c2oc3cc(OCC)cc(OCC)c3c(=O)c2OCC)c(OCC)c1 [Compound 8, 2',3,4',5,7-Pentaethoxyflavone]

Molecule: COc1cc(OC)c(-c2oc3ccccc3c(=O)c2O)c(OC)c1 [Compound 9, reference compound]
Ki (human A3 receptors; [8]): 50.1 ± 7.8 µM | rA1/hA3 (human A3 receptors; Table 3, ratio of Ki): 0.15 | inhibition at 100 µM (A2a receptors; [10]): < 10% | Ki (A1 receptors; [9]): 7.32 ± 1.36 µM

Ki (human A3 receptors; Table 5, [125I]AB-MECA, HEK-293 membranes, read-out: Ki hA3): 3.95 µM
Molecule: CCCOc1c2ccoc2cc2oc(/C=C/c3ccccc3)cc(=O)c12 [Compound 21, 4-propyloxy-7-trans-styryl-visnagin]

Molecule: O=c1cc(-c2ccccc2)oc2cccc(O)c12 [Compound 25, reference compound]
inhibition at 100 µM (human A3 receptors; Table 6, read-out: % inhibition hA3): 47 ± 12% | Ki (A2a receptors; Table 6, [3H]CGS 21680, rat striatal membranes, read-out: K2 (rA2a)): 6.2 ± 1.24 µM

Molecule: COc1ccc(-c2cc(=O)c3c(OC)c(OC)c(OC)cc3o2)cc1 [Compound 31, reference compound]
Ki (human A3 receptors; [11]): 4.48 ± 0.14 µM | Ki (A1 receptors; brain membranes, read-out: K2 (rA1)): 1.29 ± 0.08 µM

Molecule: COc1ccc(-c2oc3cc(OC)cc(OC)c3c(=O)c2OC)cc1 [Compound 35, 3,4',5,7-tetramethoxyflavone]
Ki (human A3 receptors; [11]): 3.37 ± 1.83 µM | Ki (A1 receptors; Table 6, [3H]PIA, rat brain membranes, read-out: K2 (rA1)): 1.07 µM

Molecule: COc1cc(O)c2c(=O)c(O)c(-c3ccc(O)c(O)c3)oc2c1 [Compound 36, rhamnetin, reference compound]
Ki (human A3 receptors; [11]): 1.38 ± 0.18 µM

Ki (human A3 receptors; [11]): 16.2 ± 2.2 µM | inhibition at 1 µM (A1 receptors; Table 6, 10^-6 M, read-out: displacement of specific binding rA1): < 10%
Molecule: COc1cc(OC)c2c(=O)c(OC)c(-c3cc(OC)c(OC)c(OC)c3)oc2c1 [Compound 39, hexamethylmyricetin]

Molecule: O=c1c(-c2ccc(O)cc2)coc2cc(O)cc(O)c12 [Compound 40, genistein, reference compound]
inhibition at 100 µM (human A3 receptors; [12]): 20 ± 2%

Molecule: COc1cc(O)c2c(c1)O[C@H](c1ccc(O)cc1)CC2=O [Compound 42, sakuranetin, reference compound]
Ki (human A3 receptors; Table 7, [125I]AB-MECA, HEK-293 membranes, read-out: Ki (hA3)): 3.4 ± 0.18 µM

Molecule: COc1cc2c3c(oc(=O)c2cc1OC)CCCC3=O [Compound 45]
inhibition at 100 µM (human A3 receptors; Table 7, read-out: displacement of specific binding hA3): < 10% | Ki (A2a receptors; [13]): 29.9 ± 10.1 µM

Molecule: O=C1c2ccccc2-c2cc3c(cc21)OCO3 [Compound 49, 2,3-methylenedioxy-fluorene-9-one]
inhibition at 100 µM (human A3 receptors; [12]): 52 ± 6% | Ki (A2a receptors; [13]): 84 ± 6.9 µM

Ki (human A3 receptors; [2]): 8.47 µM | Ki (A1 receptors; [4]): 20.1 µM
Molecule: COCCOC(=O)C1=C(C)NC(C)=C(C(=O)OC(C)C)C1c1cccc([N+](=O)[O-])c1 (centres unmarked) [Compound 64, reference compound]
greater affinity for A3 than A1 or A2a adenosine receptors (human A3 receptors; selectivity in words): greater affinity for A3 adenosine receptors than A1 or A2a adenosine receptors | greater affinity to A1 than A2a adenosine receptors (A1 receptors; selectivity in words): greater affinity to A1 adenosine receptors than A2a receptors

Molecule: COC(=O)C1=C(C)NC(C)=C(C(=O)OCCCN2CCC(c3ccccc3)(c3ccccc3)CC2)C1c1cccc([N+](=O)[O-])c1 (centres unmarked) [Compound 65, reference compound]
greater affinity for A3 than A1 or A2a adenosine receptors (human A3 receptors): greater affinity for A3 adenosine receptors than A1 or A2a adenosine receptors | greater affinity to A1 than A2a adenosine receptors (A1 receptors): greater affinity to A1 adenosine receptors than A2a receptors

Ki (A2a receptors; [3]): 4.77 ± 0.29 µM
Molecule: CCOC(=O)C1=C(C)NC(c2ccccc2)=C(C(=O)OCC)C1/C=C/c1ccccc1 (centres unmarked) [Compound 79]
greater affinity for A3 than A1 or A2a adenosine receptors (human A3 receptors; selectivity in words): greater affinity for A3 adenosine receptors than A1 or A2a adenosine receptors

Molecule: COc1ccc(-c2ccncc2)cc1 [Compound 83]
inhibition at 100 µM (human A3 receptors; Table 10, read-out: displacement of specific binding hA3): < 10% | Ki (A2a receptors; Table 10, [3H]CGS 21680, rat striatal membranes, read-out: Ki rA2a): 71 ± 29 µM

Ki (human A3 receptors; [14]): < 0.1 µM
Molecule: CCOC(=O)C1=C(C)NC(c2ccccc2)=C(C(=O)OCc2ccccc2)C1C#Cc1ccc([N+](=O)[O-])cc1 (centres unmarked) [Compound 102]

Ki (human A3 receptors; [14]): < 0.1 µM
Molecule: CCOC(=O)C1=C(C)NC(c2ccccc2)=C(C(=O)OCc2ccccc2)C1C#Cc1ccc(N)cc1 (centres unmarked) [Compound 103]

Ki (human A3 receptors; [14]): < 0.1 µM
Molecule: CCOC(=O)C1=C(C)NC(c2ccccc2)=C(C(=O)OCc2ccccc2)C1C#Cc1ccc(N)c(I)c1 (centres unmarked) [Compound 104]

Ki (human A3 receptors; [6]): 0.01 µM
Molecule: CCOC(=O)C1=C(C)NC(c2ccccc2)=C(C(=O)OCc2ccc(C(=O)NCCN)cc2)C1C#Cc1ccccc1 (centres unmarked) [Compound 123]

Molecule: Nc1nc2ccc(Cl)cc2c2nc(-c3ccco3)nn12 [Compound 144, reference compound]
Ki (human A3 receptors; read-out: Ki hA3): 0.0138 ± 0.0024 µM

Ki (human A3 receptors; [1]): 0.054 ± 0.0131 µM
Molecule: Nc1nc2ccc(Cl)cc2c2nc(-c3ccc(Br)o3)nn12 [Compound 157]

Ki (human A3 receptors; [15]): 0.0297 ± 0.0077 µM | Ki (A2a receptors; read-out: Ki rA2A): 0.0283 ± 0.0103 µM
Molecule: O=C(CCc1ccccc1)Nc1nc2ccc(Cl)cc2c2nc(-c3ccco3)nn12 [Compound 160]

Ki (human A3 receptors; [15]): 0.0087 ± 0.00097 µM | Ki (A1 receptors; Table 16, [3H]R-PIA, rat brain membranes, read-out: Ki rA1): 0.028 µM
Molecule: O=C(Cc1ccc([N+](=O)[O-])cc1)Nc1nc2ccc(Cl)cc2c2nc(-c3ccco3)nn12 [Compound 162]

Ki (human A3 receptors; [15]): 0.004 µM
Molecule: Nc1ccc(CC(=O)Nc2nc3ccc(Cl)cc3c3nc(-c4ccco4)nn23)cc1 [Compound 163]

Ki (human A3 receptors; [15]): 0.001 µM
Molecule: Nc1ccc(CC(=O)Nc2nc3ccc(Cl)cc3c3nc(-c4ccco4)nn23)cc1I [Compound 164]

Molecule: CCOC(=O)C1=C(c2ccccc2)NC(C)=C(C(=O)OCC2COC(C)(C)O2)C1C#Cc1ccccc1 (centres unmarked) [Compound 209a]
inhibition at 100 µM (A2a receptors; Table 14, read-out: displacement of specific binding rA2A): < 10% | inhibition at 100 µM (A1 receptors; Table 14, read-out: % inhibition rA1): 32 ± 4%
